Structures are written as SMILES. pEC50: −log10 of the molar value. Starred links: 1 amine or outer side, 2 acyl side, 3 side chain; linkers in the order of their positions; H or OH if unused. Non-standard residues stand in square brackets, D forms with d. Residues, ends and D or L forms follow the SMILES beside them. Groups on a side chain read outwards from the residue. *: point of attachment. d(γGlu) = O=C(O)[C@@H](CCC(=O)[*:2])N[*:1]; C18 diacid = O=C(O)CCCCCCCCCCCCCCCCC(=O)*; AEEA = NCCOCCOCC(=O)O; Aib = CC(C)(N)C(=O)O Where only a bound is given, the exact number is not on record here.

The target of the first assay is hGLP-1R (Homo sapiens, UniProt P43220). As to the kind of experiment: Cell agonistic activity at GLP-1 receptor (Example 7). In kind it is cell-based.
Sequence of hGLP-1R (P43220 24-463): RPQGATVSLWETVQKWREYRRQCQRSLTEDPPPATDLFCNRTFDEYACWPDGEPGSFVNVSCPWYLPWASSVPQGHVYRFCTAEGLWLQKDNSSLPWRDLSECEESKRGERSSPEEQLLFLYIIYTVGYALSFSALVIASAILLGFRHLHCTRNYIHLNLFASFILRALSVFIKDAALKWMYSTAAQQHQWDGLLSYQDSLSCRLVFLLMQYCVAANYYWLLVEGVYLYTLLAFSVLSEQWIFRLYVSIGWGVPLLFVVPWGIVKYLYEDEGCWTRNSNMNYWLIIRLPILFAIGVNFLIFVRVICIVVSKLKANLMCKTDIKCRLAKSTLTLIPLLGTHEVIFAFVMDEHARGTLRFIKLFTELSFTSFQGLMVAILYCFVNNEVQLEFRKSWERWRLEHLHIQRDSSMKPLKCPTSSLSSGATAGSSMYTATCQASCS
Conditions: not given
The pEC50 is the EC50 on a negative log10 scale, so that one unit is a factor of ten. The molecule `CC[C@H](C)[C@H](NC(=O)[C@H](CO)NC(=O)[C@H](Cc1ccc(O)cc1)NC(=O)[C@H](CC(=O)O)NC(=O)[C@H](CO)NC(=O)[C@@H](NC(=O)[C@H](Cc1ccccc1)NC(=O)[C@@H](NC(=O)CNC(=O)[C@H](CCC(=O)O)NC(=O)C(C)(C)NC(=O)[C@@H](N)Cc1ccc(O)cc1)[C@@H](C)O)[C@@H](C)CC)C(=O)N[C@@H](C)C(=O)N[C@@H](CC(C)C)C(=O)N[C@@H](CC(=O)O)C(=O)N[C@@H](CCCCN)C(=O)N[C@H](C(=O)N[C@@H](Cc1c[nH]cn1)C(=O)N[C@@H](CCC(N)=O)C(=O)N[C@@H](CCC(N)=O)C(=O)N[C@@H](CC(=O)O)C(=O)N[C@@H](Cc1ccccc1)C(=O)N[C@H](C(=O)N[C@@H](CC(N)=O)C(=O)N[C@@H](Cc1c[nH]c2ccccc12)C(=O)N[C@@H](CC(C)C)C(=O)N[C@@H](CC(C)C)C(=O)N[C@@H](C)C(=O)N[C@@H](CCC(N)=O)C(=O)N[C@@H](CCCNC(=N)N)C(=O)NCC(=O)O)C(C)C)[C@@H](C)CC` [Sequence 7] (H-Y[Aib]EGTFISDYSIALDKIHQQDFVNWLLAQRG-OH; N-terminus and C-terminus assumed) had a pEC50 of under 10.00.

Molecule `CC[C@H](C)[C@H](NC(=O)[C@H](CO)NC(=O)[C@H](Cc1ccc(O)cc1)NC(=O)[C@H](CC(=O)O)NC(=O)[C@H](CO)NC(=O)[C@@H](NC(=O)[C@H](Cc1ccccc1)NC(=O)[C@@H](NC(=O)CNC(=O)[C@H](CCC(=O)O)NC(=O)C(C)(C)NC(=O)[C@@H](N)Cc1ccc(O)cc1)[C@@H](C)O)[C@@H](C)CC)C(=O)N[C@@H](C)C(=O)N[C@@H](CC(C)C)C(=O)N[C@@H](CC(=O)O)C(=O)N[C@@H](CCCCN)C(=O)N[C@H](C(=O)N[C@@H](Cc1c[nH]cn1)C(=O)N[C@@H](CCC(N)=O)C(=O)N[C@@H](CCC(=O)O)C(=O)N[C@@H](CC(=O)O)C(=O)N[C@@H](Cc1ccccc1)C(=O)N[C@H](C(=O)N[C@@H](CC(N)=O)C(=O)N[C@@H](Cc1c[nH]c2ccccc12)C(=O)N[C@@H](CC(C)C)C(=O)N[C@@H](CC(C)C)C(=O)N[C@@H](C)C(=O)N[C@@H](CCC(N)=O)C(=O)N[C@@H](CCCNC(=N)N)C(=O)NCC(=O)O)C(C)C)[C@@H](C)CC` [Sequence 9] (H-Y[Aib]EGTFISDYSIALDKIHQEDFVNWLLAQRG-OH; N-terminus and C-terminus assumed) showed a pEC50 of under 10.00.

In turn, `CC[C@H](C)[C@H](NC(=O)[C@H](CO)NC(=O)[C@H](Cc1ccc(O)cc1)NC(=O)[C@H](CC(=O)O)NC(=O)[C@H](CO)NC(=O)[C@@H](NC(=O)[C@H](Cc1ccccc1)NC(=O)[C@@H](NC(=O)CNC(=O)[C@H](CCC(=O)O)NC(=O)C(C)(C)NC(=O)[C@@H](N)Cc1ccc(O)cc1)[C@@H](C)O)[C@@H](C)CC)C(=O)N[C@@H](C)C(=O)N[C@@H](CC(C)C)C(=O)N[C@@H](CC(=O)O)C(=O)N[C@@H](CCC(=O)O)C(=O)N[C@@H](CC(C)C)C(=O)N[C@@H](Cc1c[nH]cn1)C(=O)N[C@@H](CCC(N)=O)C(=O)N[C@@H](CCCCN)C(=O)N[C@@H](CC(=O)O)C(=O)N[C@@H](Cc1ccccc1)C(=O)N[C@H](C(=O)N[C@@H](CC(N)=O)C(=O)N[C@@H](Cc1c[nH]c2ccccc12)C(=O)N[C@@H](CC(C)C)C(=O)N[C@@H](CC(C)C)C(=O)N[C@@H](C)C(=O)N[C@@H](CCC(N)=O)C(=O)N[C@@H](CCCNC(=N)N)C(=O)NCC(=O)O)C(C)C` [Sequence 6] (H-Y[Aib]EGTFISDYSIALDELHQKDFVNWLLAQRG-OH; N-terminus and C-terminus assumed) gave a pEC50 of under 10.00.

Regarding `CC[C@H](C)[C@H](NC(=O)[C@H](CO)NC(=O)[C@H](Cc1ccc(O)cc1)NC(=O)[C@H](CC(=O)O)NC(=O)[C@H](CO)NC(=O)[C@@H](NC(=O)[C@H](Cc1ccccc1)NC(=O)[C@@H](NC(=O)CNC(=O)[C@H](CCC(=O)O)NC(=O)C(C)(C)NC(=O)[C@@H](N)Cc1ccc(O)cc1)[C@@H](C)O)[C@@H](C)CC)C(=O)N[C@@H](C)C(=O)N[C@@H](CC(C)C)C(=O)N[C@@H](CC(=O)O)C(=O)N[C@@H](CCC(=O)O)C(=O)N[C@H](C(=O)N[C@@H](Cc1c[nH]cn1)C(=O)N[C@@H](CCC(N)=O)C(=O)N[C@@H](CCCCN)C(=O)N[C@@H](CC(=O)O)C(=O)N[C@@H](Cc1ccccc1)C(=O)N[C@H](C(=O)N[C@@H](CCCCN)C(=O)N[C@@H](Cc1c[nH]c2ccccc12)C(=O)N[C@@H](CC(C)C)C(=O)N[C@@H](CC(C)C)C(=O)N[C@@H](C)C(=O)N[C@@H](CCC(N)=O)C(=O)N[C@@H](CCCCN)C(=O)NCC(=O)O)C(C)C)[C@@H](C)CC` [Sequence 4] (H-Y[Aib]EGTFISDYSIALDEIHQKDFVKWLLAQKG-OH; N-terminus and C-terminus assumed), the negative-log EC50 (pEC50) was under 10.00.

Consider `CC[C@H](C)[C@H](NC(=O)[C@H](CO)NC(=O)[C@H](Cc1ccc(O)cc1)NC(=O)[C@H](CC(=O)O)NC(=O)[C@H](CO)NC(=O)[C@@H](NC(=O)[C@H](Cc1ccccc1)NC(=O)[C@@H](NC(=O)CNC(=O)[C@H](CCC(=O)O)NC(=O)C(C)(C)NC(=O)[C@@H](N)Cc1ccc(O)cc1)[C@@H](C)O)[C@@H](C)CC)C(=O)N[C@@H](C)C(=O)N[C@@H](CC(C)C)C(=O)N[C@@H](CC(=O)O)C(=O)N[C@@H](CCCNC(=N)N)C(=O)N[C@@H](CC(C)C)C(=O)N[C@@H](Cc1c[nH]cn1)C(=O)N[C@@H](CCC(N)=O)C(=O)N[C@@H](CCC(N)=O)C(=O)N[C@@H](CC(=O)O)C(=O)N[C@@H](Cc1ccccc1)C(=O)N[C@H](C(=O)N[C@@H](CC(N)=O)C(=O)N[C@@H](Cc1c[nH]c2ccccc12)C(=O)N[C@@H](CC(C)C)C(=O)N[C@@H](CC(C)C)C(=O)N[C@@H](C)C(=O)N[C@@H](CCC(N)=O)C(=O)N[C@@H](CCCCN)C(=O)NCC(=O)O)C(C)C` [Sequence 18] (H-Y[Aib]EGTFISDYSIALDRLHQQDFVNWLLAQKG-OH; N-terminus and C-terminus assumed), for which the pEC50 is under 10.00.

The same assay, now with this note: read-out: hGLP-1R EC50.
With `CC[C@H](C)[C@H](NC(=O)[C@H](CO)NC(=O)[C@H](Cc1ccc(O)cc1)NC(=O)[C@H](CC(=O)O)NC(=O)[C@H](CO)NC(=O)[C@@H](NC(=O)[C@H](Cc1ccccc1)NC(=O)[C@@H](NC(=O)CNC(=O)[C@H](CCC(=O)O)NC(=O)C(C)(C)NC(=O)[C@@H](N)Cc1ccc(O)cc1)[C@@H](C)O)[C@@H](C)CC)C(=O)N[C@@H](C)C(=O)N[C@@H](CC(C)C)C(=O)N[C@@H](CC(=O)O)C(=O)N[C@@H](CCCCNC(=O)COCCOCCNC(=O)COCCOCCNC(=O)CC[C@@H](NC(=O)CCCCCCCCCCCCCCCCC(=O)O)C(=O)O)C(=O)N[C@@H](CC(C)C)C(=O)N[C@@H](Cc1c[nH]cn1)C(=O)N[C@@H](CCC(N)=O)C(=O)N[C@@H](CCC(=O)O)C(=O)N[C@@H](CC(=O)O)C(=O)N[C@@H](Cc1ccccc1)C(=O)N[C@H](C(=O)N[C@@H](CC(N)=O)C(=O)N[C@@H](Cc1c[nH]c2ccccc12)C(=O)N[C@@H](CC(C)C)C(=O)N[C@@H](CC(C)C)C(=O)N[C@@H](C)C(=O)N[C@@H](CCC(N)=O)C(=O)N[C@@H](CCCNC(=N)N)C(=O)NCC(=O)O)C(C)C` [Peptide 10, N-{ε-16}-18-{[(23R)-23-carboxyl-2,11,20-trioxo-10,19-diaza-4,7,13,16-tetraoxatricosyl-23-yl]amino}-18-oxooctadecanoic acid acetyl-[Aib2, L14, L17, E20, R30]-hGIP(1-31)] (H-Y[Aib]EGTFISDYSIALDK([AEEA-AEEA-d(γGlu)-C18 diacid])LHQEDFVNWLLAQRG-OH), the pEC50 was under 10.00.
